Test results taken from patent US9006426B2, “Squaric acid derivatives as inhibitors of the nicotinamide” (Topotarget A/S, priority 2008, dated 2015).
Where a name gives a salt, the structure may show the parent alone.

test system: A2780 cells; experiment: In vitro cell proliferation assay (WST-1 assay); format: cell-based; details: Homo sapiens, total incubation time 72 h, WST-1 reagent
Experimental: In Vitro Cell Proliferation Assay (WST-1 Assay)
A2780 cells were seeded in 96-well plates at 3×10^3 cells/well in 100 μL of culture medium, 8 wells were left empty for media only controls.
After 24 h the compound titrations were performed, in a separate dilution plate, by serially diluting the compounds of general formula (I) in culture medium. A 100 μL of each dilution was added to the plated cells, this was done in triplicate, and controls (e.g. DMSO and blanks) were included. The plates were incubated for 24 h at 37° C. in a CO2 incubator. The compound titrations were repeated in a separate dilution plate after 24 h. The media plus compound from the assay plates were then aspirated. A 100 μL of media was then added to all wells, followed by 100 μL of each compound dilution. The plates were incubated for a further 48 h at 37° C. in a CO2 incubator (total incubation time 72 h). The number of viable cells was then assessed using Cell Proliferation Reagent WST-1. 10 μL of WST-1 reagent added to each well and incubated for one to four hours at 37° C. in CO2 incubator. The absorbance was measured (450 nm/690 nm).
The activity of compounds of general formula (I) in reducing the number of viable cells was calculated as: % activity=[(S^c−B)/(S^o−B)]×100
S^c denotes signal measured in the presence of test compound, S^o denotes signal detected in the absence of compound, and B denotes background signal, measured in blank wells containing medium only. Analyse data using GraphPad Prism.
Results can be seen in Table 1, wherein IC50 is the concentration giving 50% activity.

Row | SMILES | IC50 [nM]
1 | O=C(CCCCCCNc1c(Nc2ccncc2)c(=O)c1=O)N(OCCN1CCOCC1)C1CCCCC1 [Compound 1007, N-cyclohexyl-7-(3,4-dioxo-2-(pyridin-4-ylamino)cyclobut-1-enylamino)-N-(2-morpholinoethoxy)heptanamide] | 0.03
2 | O=c1c(NCCCCCCS(=O)(=O)N2CCOCC2)c(Nc2ccncc2)c1=O [Compound 1031, 3-(6-(morpholinosulfonyl)hexylamino)-4-(pyridin-4-ylamino)cyclobut-3-ene-1,2-dione] | 41.3
3 | O=c1c(NCCCCCS(=O)(=O)N(OCCN2CCOCC2)C2CCCCC2)c(Nc2ccncc2)c1=O [Compound 1053, N-Cyclohexyl-5-(3,4-dioxo-2-(pyridin-4-ylamino)cyclobut-1-enylamino)-N-(2-morpholinoethoxy)pentane-1-sulfonamide] | 0.5
4 | O=c1c(NCCCCCS(=O)(=O)N(OCCN2CCOCC2)C2CCCC2)c(Nc2ccncc2)c1=O [Compound 1078, N-cyclopentyl-6-(3,4-dioxo-2-(pyridin-4-ylamino)cyclobut-1-enylamino)-N-(2-morpholinoethoxy)pentane-1-sulfonamide] | 0.42
5 | O=C(OCCCCCNc1c(Nc2ccncc2)c(=O)c1=O)N(OCCN1CCOCC1)C1CCCCC1 [Compound 1026, 5-(3,4-dioxo-2-(pyridin-4-ylamino)cyclobut-1-enylamino)pentyl cyclohexyl(2-morpholinoethoxy)carbamate] | 0.6
6 | CC(C)N(OCCN1CCOCC1)S(=O)(=O)CCCCCCNc1c(Nc2ccncc2)c(=O)c1=O [Compound 1047, 6-(3,4-dioxo-2-(pyridin-4-ylamino)cyclobut-1-enylamino)-N-isopropyl-N-(2-morpholinoethoxy)hexane-1-sulfonamide] | 0.12
7 | O=c1c(NCCCCCCS(=O)(=O)N(OCCN2CCOCC2)C2CCCC2)c(Nc2ccncc2)c1=O [Compound 1058, N-cyclopentyl-6-(3,4-dioxo-2-(pyridin-4-ylamino)cyclobut-1-enylamino)-N-(2-morpholinoethoxy)hexane-1-sulfonamide] | 0.75
8 | O=c1c(NCCCCCCS(=O)(=O)N(OCCN2CCOCC2)C2CCCCC2)c(Nc2ccncc2)c1=O [Compound 1051, N-Cyclohexyl-6-(3,4-dioxo-2-(pyridin-4-ylamino)cyclobut-1-enylamino)-N-(2-morpholinoethoxy)hexane-1-sulfonamide oxalate] | 0.45
9 | O=C(CCCCCCNc1c(Nc2ccncc2)c(=O)c1=O)N(Cc1ccccc1)OCCN1CCOCC1 [Compound 1016, N-benzyl-7-(3,4-dioxo-2-(pyridin-4-ylamino)cyclobut-1-enylamino)-N-(2-morpholinoethoxy)heptanamide] | 0.56
10 | COCCOCCOCCN(OCCC1CCCCC1)S(=O)(=O)CCCCCCNc1c(Nc2ccncc2)c(=O)c1=O [Compound 1008, N-(2-cyclohexylethoxy)-6-(3,4-dioxo-2-(pyridin-4-ylamino)cyclobut-1-enylamino)-N-(2-(2-(2-methoxyethoxy)ethoxy)ethyl)hexane-1-sulfonamide] | 0.48
11 | O=c1c(NCCCCCCS(=O)(=O)N(CCCN2CCOCC2)C2CCC2)c(Nc2ccncc2)c1=O [Compound 1062, N-cyclobutyl-6-(3,4-dioxo-2-(pyridin-4-ylamino)cyclobut-1-enylamino)-N-(3-morpholinopropyl)hexane-1-sulfonamide] | 0.42
12 | CN(OCCC1CCCCC1)S(=O)(=O)CCCCCCNc1c(Nc2ccncc2)c(=O)c1=O [Compound 1011, N-(2-cyclohexylethoxy)-6-(3,4-dioxo-2-(pyridin-4-ylamino)cyclobut-1-enylamino)-N-methylhexane-1-sulfonamide] | 0.085
13 | CN(C1CCCCCC1)S(=O)(=O)CCCCCCNc1c(Nc2ccncc2)c(=O)c1=O [Compound 1027, N-cycloheptyl-6-(3,4-dioxo-2-(pyridin-4-ylamino)cyclobut-1-enylamino)-N-methylhexane-1-sulfonamide] | 0.08
14 | O=c1c(NCCCCCCS(=O)(=O)N(CCN2CCOCC2)c2ccc(Cl)cc2)c(Nc2ccncc2)c1=O [Compound 1080, N-(4-chlorophenyl)-6-(3,4-dioxo-2-(pyridin-4-ylamino)cyclobut-1-enylamino)-N-(2-morpholinoethyl)hexane-1-sulfonamide] | 0.66
15 | O=c1c(NCCCCCCS(=O)(=O)N(CCN2CCOCC2)OCc2ccccc2)c(Nc2ccncc2)c1=O [Compound 1077, N-(benzyloxy)-6-(3,4-dioxo-2-(pyridin-4-ylamino)cyclobut-1-enylamino)-N-(2-morpholinoethyl)hexane-1-sulfonamide] | 0.066
16 | O=c1c(NCCCCCCS(=O)(=O)N(CCN2CCOCC2)OCCC2CCCCC2)c(Nc2ccncc2)c1=O [Compound 1009, N-(2-cyclohexylethoxy)-6-(3,4-dioxo-2-(pyridin-4-ylamino)cyclobut-1-enylamino)-N-(2-morpholinoethyl)hexane-1-sulfonamide] | 0.43
17 | O=c1c(NCCCCCCS(=O)(=O)N(Cc2ccccc2)OCCC2CCCCC2)c(Nc2ccncc2)c1=O [Compound 1010, N-benzyl-N-(2-cyclohexylethoxy)-6-(3,4-dioxo-2-(pyridin-4-ylamino)cyclobut-1-enylamino)hexane-1-sulfonamide] | 0.93
18 | O=c1c(NCCCCCCS(=O)(=O)N(OCCN2CCOCC2)C2CCCCCC2)c(Nc2ccncc2)c1=O [Compound 1060, N-cycloheptyl-6-(3,4-dioxo-2-(pyridin-4-ylamino)cyclobut-1-enylamino)-N-(2-morpholinoethoxy)hexane-1-sulfonamide] | 0.69
19 | O=c1c(NCCCCCCS(=O)(=O)N(CCCN2CCOCC2)C2CCCCC2)c(Nc2ccncc2)c1=O [Compound 1050, N-Cyclohexyl-6-(3,4-dioxo-2-(pyridin-4-ylamino)cyclobut-1-enylamino)-N-(3-morpholinopropyl)hexane-1-sulfonamide] | 1.19
20 | CCOP(=O)(CCCCCCNc1c(Nc2ccncc2)c(=O)c1=O)NC1CCCCC1 (centres unmarked) [Compound 1068, Ethyl N-cyclohexyl-P-(6-(3,4-dioxo-2-(pyridin-4-ylamino)cyclobut-1-enylamino)hexyl)phosphonimidate] | 0.18
21 | O=c1c(NCCCCCCCS(=O)(=O)N(OCCN2CCOCC2)C2CCCCC2)c(Nc2ccncc2)c1=O [Compound 1052, N-Cyclohexyl-7-(3,4-dioxo-2-(pyridin-4-ylamino)cyclobut-1-enylamino)-N-(2-morpholinoethoxy)heptane-1-sulfonamide] | 0.3
22 | O=c1c(NCCCCCCS(=O)(=O)N(CCN2CCOCC2)C2CCCCC2)c(Nc2ccncc2)c1=O [Compound 1067, N-cyclohexyl-6-(3,4-dioxo-2-(pyridin-4-ylamino)cyclobut-1-enylamino)-N-(2-morpholinoethyl)hexane-1-sulfonamide] | 1.13
23 | O=C(CCCCCCNc1c(Nc2cccnc2)c(=O)c1=O)N(OCCN1CCOCC1)C1CCCCC1 [Compound 1033, N-cyclohexyl-7-(3,4-dioxo-2-(pyridin-3-ylamino)cyclobut-1-enylamino)-N-(morpholinoethoxy)heptanamide] | 0.6
24 | O=C(CCCCCCCNc1c(Nc2ccncc2)c(=O)c1=O)N(Cc1ccccc1)OCCN1CCOCC1 [Compound 1018, N-benzyl-8-(3,4-dioxo-2-(pyridin-4-ylamino)cyclobut-1-enylamino)-N-(2-morpholinoethoxy)octanamide] | 0.26
25 | O=c1c(NCCCCCCS(=O)(=O)N2CCCCCC2)c(Nc2ccncc2)c1=O [Compound 1030, 3-(6-(azepan-1-ylsulfonyl)hexylamino)-4-(pyridin-4-ylamino)cyclobut-3-ene-1,2-dione] | 0.53
26 | O=C(NCCCCCNc1c(Nc2ccncc2)c(=O)c1=O)N(OCCN1CCOCC1)C1CCCCC1 [Compound 1039, 1-cyclohexyl-3-(5-(3,4-dioxo-2-(pyridin-4-ylamino)cyclobut-1-enylamino)pentyl)-1-(2-morphinethoxy)urea] | 4.49
27 | O=c1c(NCCCCCCS(=O)(=O)N(CCCN2CCOCC2)CCN2CCOCC2)c(Nc2ccncc2)c1=O [Compound 1019, 6-(3,4-dioxo-2-(pyridin-4-ylamino)cyclobut-1-enylamino)-N-(2-morpholinoethyl)-N-(3-morpholinopropyl)hexane-1-sulfonamide] | 26
28 | O=c1c(NCCCCCCS(=O)(=O)N(CCN2CCOCC2)C2CCCCCC2)c(Nc2ccncc2)c1=O [Compound 1021, N-cycloheptyl-6-(3,4-dioxo-2-(pyridin-4-ylamino)cyclobut-1-enylamino)-N-(2-morpholinoethyl)hexane-1-sulfonamide] | 0.25
29 | CN(OCc1ccccc1)S(=O)(=O)CCCCCCNc1c(Nc2ccncc2)c(=O)c1=O [Compound 1076, N-(benzyloxy)-6-(3,4-dioxo-2-(pyridin-4-ylamino)cyclobut-1-enylamino)-N-methylhexane-1-sulfonamide] | 0.25
